Experiments:
Water solubility = assay type: physicochemical; conditions: times higher than that of olaparib
MDA-MB-436 tumor cells = experiment: PBMC humanized MDA-MB-436 subcutaneous tumor grafting model, tumor growth inhibition; assay type: in vivo, Mus Musculus, NCG; conditions: for Tumor growth inhibition (%): PG-D24, TGI=(1-T/C)x100% from relative tumor volume, mefuparib HCl 40 mg/kg p.o., Tuoyi 10 mg/kg i.p.; for Tumor volume, Grouping (PG-D0): at grouping, start of treatment, mefuparib HCl 40 mg/kg p.o. qod, Tuoyi 10 mg/kg i.p. q4d; for Tumor volume, Administration (PG-D24): day 24 after grouping, mefuparib HCl 40 mg/kg p.o. qod x 13, Tuoyi 10 mg/kg i.p. q4d x 7
Protocol: Species: Mus Musculus, NCG (NOD-Prkdc^em26Cd52II2rg^em26Cd22/N ju), female; weight: 18-22 g; quantity: 55; supplier: GemPharmatech.
MDA-MB-436 tumor cells (YK-CL-075) were purchased from ATCC. The tumor cells were cultured in the Leibovitz's L-15 medium containing inactivated 10% fetal bovine serum, 100 U/mL of penicillin and 100 μg/mL of streptomycin in a 37° C./5% CO2 incubator, and were passaged every 3 to 4 days when the cells were overgrown. The tumor cells in logarithmic phase were used for in vivo tumor grafting.
PBMCs (human peripheral blood mononuclear cells) were purchased from […] (Donor#: A0075).
MDA-MB-436 tumor cells were resuspended in a 1:1 (v:v) mixture of PBS and Matrigel at a concentration of 1×10^8 cells/mL, and were grafted subcutaneously at the right flank of mice at 100 μL/mouse. When the tumor grew to about 1000 mm^3, the tumors were aseptically removed and cut into small pieces having dimensions of about 2 mm×2 mm×2 mm, which were grafted subcutaneously at the right flank of experimental animals. After 2 weeks, PBMCs were resuspended in PBS and grafted into mice in an amount of 2×10^6 cells/mouse. The animals were divided into 4 groups of 10 and treated (the day was recorded as PG-D0) when the tumor grew to about 93 mm^3.
The long and short diameters of the tumor were measured twice every week using a vernier caliper for calculating the tumor volume, and the calculation formula was: volume=0.5×long diameter×[…].
The T/C value was calculated from the tumor volume, where T is the mean relative tumor volume (RTV) of each treatment group and C is the mean RTV of the control group. RTV is the ratio of tumor volume after the treatment to that before the treatment. Tumor growth inhibition (TGI, %)=(1−T/C)×100%.
Inter-group statistical analysis was performed on tumor volume using IBM SPSS Statistics 22.0 software and mixed linear model analysis. Inter-group statistical analysis was performed on tumor weight using One-Way ANOVA analysis, with p<0.05 indicating significant differences.

[1] = tested on: human-derived CD45+ cells (hCD45 cells); experiment: FACS assay of hCD45 in peripheral blood 3 weeks after PBMC grafting; assay type: in vivo, Mus Musculus, NCG; conditions: FIG. 4
Protocol: Three weeks after PBMC grafting, peripheral blood of the mice was collected, and the proportion of human-derived CD45^+ cells (hCD45 cells) therein was determined by flow cytometry (FACS). After the end of study, the tumors was removed, weighed and photographed.

[2] = cited from earlier work
[3] = tested on: BRCA-mutant and HER2-negative advanced breast cancer; conditions: cited from earlier work
[4] = patients receiving olaparib monotherapy

Compound: CNCc1ccc(-c2cc3cc(F)cc(C(N)=O)c3o2)cc1.Cl [Mefuparib hydrochloride, mefuparib hydrochloride]
- water solubility relative to olaparib (Water solubility): 350 times
- Tumor growth inhibition (%) (MDA-MB-436 tumor cells; hydrochloride): 54%
- Tumor growth inhibition (%) (MDA-MB-436 tumor cells; listed as mefuparib hydrochloride, hydrochloride): 54%
- Tumor volume, Grouping (PG-D0) (MDA-MB-436 tumor cells): 93 ± 6 mm^3
- Tumor volume, Administration (PG-D24) (MDA-MB-436 tumor cells): 761 ± 130 mm^3
- percentage median of hCD45 cells in peripheral blood compared with the control group [1]: higher than that in the control group
- water solubility [2]: > 35 mg/mL

Compound: O=C(c1cc(Cc2n[nH]c(=O)c3ccccc23)ccc1F)N1CCN(C(=O)C2CC2)CC1 [olaparib]
- grade 3 adverse event: anemia ([3]; associated with olaparib): 12%
- grade 3 adverse event: neutropenia ([3]; associated with olaparib): 6%
- median PFS [3, 4]: 7.0 months
- response rate [3, 4]: 59.9%

Compound: durvalumab
- grade 3 adverse event: pancreatitis ([3]; associated with durvalumab): 6%

Compound: toripalimab [Tuoyi PD-1 monoclonal antibody injection]
- Tumor growth inhibition (%) (MDA-MB-436 tumor cells): 29%
- Tumor volume, Grouping (PG-D0) (MDA-MB-436 tumor cells): 94 ± 7 mm^3
- Tumor volume, Administration (PG-D24) (MDA-MB-436 tumor cells): 1256 ± 252 mm^3
- percentage median of hCD45 cells in peripheral blood compared with the control group [1]: higher than that in the control group

Reference: patent publication US20230094843A1, “PHARMACEUTICAL COMBINATION FOR TREATING TUMORS AND APPLICATION THEREOF” (FUKANG (SHANGHAI) HEALTH TECHNOLOGY CO., LTD, priority 2019, published 2023)
